Test results published in patent US10159678B2, “Methods to decrease susceptibility to asthmatic bronchoconstriction” (Cornell University, priority 2012, dated 2018).

Key:
isolated bronchial rings = experiment: Myograph contractile response of bronchial rings isolated from myriocin-treated mice; assay type: in vivo; details: rings isolated from mice given myriocin (20 μg) intranasally; dose-dependent manner; FIG. 3C, 3D
Description: To directly assess bronchial reactivity bronchi were dissected from myriocin treated mice, Sptlc2^+/− or naïve mice, and mounted on hooks in a multiwire myograph system (DMT, Ann Arbor, Mich.) where they were kept at a resting tension of 200-250 mg in Krebs Henseleit (KH) solution at 37° C. (95% O2, 5% CO2). In addition, bronchial rings from naïve mice were bathed in myriocin (10 μM) for 3 h in the myograph before analysis. Mechanical forces were measured isometrically with force transducers interfaced to a data acquisition system (ADInstruments, Colorado Springs, Colo.) and analyzed with LabChart6Pro for Windows. Potassium (80 mM) was used to achieve maximum contraction and methacholine (0.01-10 μM) was added 30 min after washout of the K^+ solution. Contractile responses were measured as percentage of the response to K^+.

lung inflammation = experiment: Assessment of inflammation (BAL cells, lung histology, cytokine mRNA) after myriocin; assay type: in vivo, mice
Description: BAL was collected by intratracheal instillations of PBS (2×0.5 ml). Cell differentials were determined by Giemsa stain on cytospin preparations. Cell viability was determined by trypan blue exclusion. Expression of TNF-α, IL-6 and IL-1β in the lung was quantified by TaqMan RealTime RT-PCR. RNA was extracted using TRIzol (Invitrogen). […] RNA levels were quantified using the ΔΔCt method and normalized to expression of murine ribosomal 18s (4310893E, Applied Biosystems). For lung histology, lungs were inflated with 4% paraformaldehyde at 25 cm H2O and 5 μm paraffin sections were stained with hematoxylin and eosin (H&E).

TRPM7 = experiment: Lung magnesium homeostasis (TRPM6/TRPM7 mRNA, total lung magnesium) after myriocin; assay type: in vivo, mice
Description: It is proportional to the magnesium concentration.

SMILES: CCCCCCC(=O)CCCCCC/C=C/C[C@@H](O)[C@H](O)[C@@](N)(CO)C(=O)O [myriocin]
- contractile responses of bronchial rings to methacholine (isolated bronchial rings): increased
- expression of IL-6 in the lungs (lung inflammation; myriocin (20 μg) vs controls, FIG. 4H): No increases
- expression of IL-1β in the lungs (lung inflammation; myriocin (20 μg) vs controls, FIG. 4I): No increases
- TNF-α expression in the lungs (lung inflammation; myriocin (20 μg) vs controls, FIG. 4J): less
- number of neutrophils in the BAL (lung inflammation; myriocin-treated (20 μg) animals, FIG. 4B): small increase
- inflammatory changes in lung sections (H&E) (lung inflammation; myriocin-treated (20 μg) mice): No inflammatory changes
- expression of TRPM6 (TRPM7; data not shown): not altered
- expression of TRPM7 in the lungs (TRPM7; mice that had received myriocin, FIG. 5A): increased
- lung magnesium levels (TRPM7; myriocin-treated (20 μg) mice, FIG. 5B): reduced
